{"source": "patent US20120283303A1", "about": "“USE OF N-AMINOIMIDAZOLE CYTOPROTECTIVE COMPOUNDS FOR TREATING CELL DEATH AND/OR GSK-3 MEDIATED DISEASES” (K.U.LEUVEN RESEARCH AND DEVELOPMENT, priority 2006, published 2012)", "key": {"motor neurons": {"system": "motor neurons", "experiment": "Basal survival of motor neurons in monoculture", "assay_type": "cell-based, Wistar rats", "protocol": "Cell cultures: Primary motor neuron cultures were prepared from Wistar rats as follows. Spinal cords were dissected from E14 embryos and collected in Hanks' Balanced Salt Solution (HBSS; Gibco Invitrogen, Grand Island, N.Y). Ventral cords were minced and digested for 15 minutes at 37° C. in 0.05% trypsin in HBSS. The solution was then replaced with medium A (L15 (Sigma, St.-Louis, Mo.) supplemented with glucose, progesterone, insulin, putrescine, conalbumin, sodium selenite, penicillin, streptomycin and 2% horse serum) containing 0.4% BSA and 20 μg/ml DNase and the tissue was dissociated by trituration. The resulting single cell suspension was layered on a 6.8% (weight/volume in L15) optiprep cushion (one spinal cord per tube) and centrifuged at 500 g for 15 minutes. […] To remove debris, both fractions were resuspended in medium A and centrifuged for 20 minutes at 75 g on a 4% BSA cushion. For co-cultures, 30,000 motor neurons of the F1 fraction were seeded on a glial feeder layer. Glial feeder layers were prepared by plating F2 cells in 35 mm dishes. After 4 weeks in vitro, cell division was halted by exposure to 10^−5 M cytosine arabinoside. For monocultures, 45,000 motor neurons were seeded in 35 mm dishes.\nImmunocytochemistry: Cell cultures were washed and fixed in cooled paraformadehyde 4% for 30 minutes. After three washes, cells were incubated in blocking solution (10% normal serum in phosphate buffered saline (PBS)) for 1 hour. Monoclonal anti-SMI-32 ( 1/10,000, Sternberger Monoclonal Inc., Luthersville, Md.) and goat anti-GFAP ( 1/10,000, Dako, Denmark) were incubated overnight in 1% normal serum in PBS. Secondary antibodies used were goat anti-mouse IgG Alaxa555 ( 1/500, Molecular Probes, Eugene, Oreg.) and donkey anti-goat FITC ( 1/500, Jackson ImmunoResearch, West Grove, Pa.).\nExposure experiments: After 1 day in culture NAIM was added to the culture medium at different concentrations. All other compounds were also added after 24 hours in culture. When culture medium was replaced, only half of the medium was taken and replaced by fresh medium, in which all different compounds were substituted as to maintain the initial concentration. In the experiment in which the effect of fresh medium was evaluated, the culture medium was replaced in total every day. […]\nIn order to determine whether the effect of NAIM was mediated through the secretion of a soluble factor in the medium by the underlying astroglial feeder layer, we prepared monocultures in which only motor neurons were present. […] In order to determine whether the protective effect of the compound was dose-dependent, we conducted a dose-response study, in which cultures were treated with different concentrations of NAIM from day 1 off and cell survival was assessed on day 5."}, "GSK-3α": {"biological_target": "T1, GSK-3α (Homo sapiens, UniProt P49840)", "T1 construct": "purchased Upstate Biotechnology", "experiment": "Radiometric kinase activity assay", "assay_type": "biochemical", "settings": "GSK-3α; 5 μg/ml NR-818, 10 μM ATP", "protocol": "(§1) GSK-3 were assayed for their ability to phosphorylate the appropriate peptide/protein substrate in the presence of 5 μg/ml NR-818 and 10 μM ATP. Using the direct radiometric approach, kinase activities were determined and expressed as % activity compared to the untreated control (Upstate Biotechnology, Lake Placid, N.Y.). Activities are given as the mean of duplicate determinations relative to control incubations in which the inhibitor was substituted with DMSO. In the following table 1 providing results for NR818, the following abbreviations are used: • CDK, cyclin-dependent kinase; • CK, casein kinase; • eEF-2K, eukaryotic elongation factor-2 kinase; • JNK, c-Jun N-terminal kinase; • MAPK, mitogen-activated protein kinase; • PKC, protein kinase C; and • PI 3-kinase, phosphatidylinositol 3-kinase.\n(§2) By using this experimental set-up, the inhibiting activity of NR953 on GSK-3 is also tested."}, "GSK-3β": {"biological_target": "T2, GSK-3β (Homo sapiens, UniProt P49841)", "T2 construct": "purchased Upstate Biotechnology", "experiment": "Radiometric kinase activity assay", "assay_type": "biochemical", "settings": "GSK-3β; 5 μg/ml NR-818, 10 μM ATP", "protocol": "as §1, §2"}, "[1]": {"system": "Peripheral blood mononuclear cells (PBMCs)", "experiment": "PBMC survival (viable cell count, trypan blue exclusion)", "assay_type": "cell-based, human", "protocol": "Peripheral blood mononuclear cells (PBMCs) from healthy donors were isolated by density centrifugation (Lymphoprep; Nycomed Pharma, AS Diagnostics, Oslo, Norway). For the “non-stimulated” conditions (NS) the cells were cultivated at a density of 1,750,000 cells per ml in RPMI-1640 supplemented with 2 mM L-glutamine, 15% FCS and 0.1% NaHCO3 for 3 days. […] At day 0 of the experiment, the NS and activated cells (PHA-stimulated blasts) were washed with PBS and were pelleted by centrifugation. […] The number of viable cells was counted based on the trypan blue exclusion method. The evolution of the number of cells was followed over a period of approximately 2 weeks."}, "CDK5/p25": {"biological_target": "T3, CDK5/p25 (Homo sapiens, UniProt Q00535)", "T3 construct": "purchased Upstate Biotechnology", "experiment": "Radiometric kinase activity assay", "assay_type": "biochemical", "settings": "5 μg/ml NR-818, 10 μM ATP", "protocol": "as §1"}, "CDK1/cyclinB": {"biological_target": "T4, CDK1/cyclinB (Homo sapiens, UniProt P06493)", "T4 construct": "purchased Upstate Biotechnology", "experiment": "Radiometric kinase activity assay", "assay_type": "biochemical", "settings": "5 μg/ml NR-818, 10 μM ATP", "protocol": "as §1"}, "CDK7/cyclinH": {"biological_target": "T5, CDK7/cyclinH (Homo sapiens, UniProt P50613)", "T5 construct": "purchased Upstate Biotechnology", "T5 sequence (P50613 whole entry)": "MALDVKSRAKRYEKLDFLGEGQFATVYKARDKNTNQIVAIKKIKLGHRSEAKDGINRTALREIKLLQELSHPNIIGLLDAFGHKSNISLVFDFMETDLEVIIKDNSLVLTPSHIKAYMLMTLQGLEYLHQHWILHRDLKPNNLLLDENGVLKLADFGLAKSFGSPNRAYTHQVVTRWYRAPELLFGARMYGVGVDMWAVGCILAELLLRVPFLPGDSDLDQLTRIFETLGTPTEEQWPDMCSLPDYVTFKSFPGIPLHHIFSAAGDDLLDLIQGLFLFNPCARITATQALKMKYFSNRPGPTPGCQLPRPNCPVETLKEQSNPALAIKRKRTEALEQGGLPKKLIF", "T5 sequence (P51946 whole entry partner)": "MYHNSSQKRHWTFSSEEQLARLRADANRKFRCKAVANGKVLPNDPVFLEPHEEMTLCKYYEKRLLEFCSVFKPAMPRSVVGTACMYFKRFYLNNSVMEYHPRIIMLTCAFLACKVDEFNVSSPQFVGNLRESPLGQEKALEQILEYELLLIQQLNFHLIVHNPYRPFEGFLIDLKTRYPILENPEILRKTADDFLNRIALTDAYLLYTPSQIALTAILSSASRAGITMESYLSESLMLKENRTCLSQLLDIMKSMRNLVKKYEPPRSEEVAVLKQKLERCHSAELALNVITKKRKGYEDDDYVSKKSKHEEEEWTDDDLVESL", "T5 sequence (P51948 whole entry partner)": "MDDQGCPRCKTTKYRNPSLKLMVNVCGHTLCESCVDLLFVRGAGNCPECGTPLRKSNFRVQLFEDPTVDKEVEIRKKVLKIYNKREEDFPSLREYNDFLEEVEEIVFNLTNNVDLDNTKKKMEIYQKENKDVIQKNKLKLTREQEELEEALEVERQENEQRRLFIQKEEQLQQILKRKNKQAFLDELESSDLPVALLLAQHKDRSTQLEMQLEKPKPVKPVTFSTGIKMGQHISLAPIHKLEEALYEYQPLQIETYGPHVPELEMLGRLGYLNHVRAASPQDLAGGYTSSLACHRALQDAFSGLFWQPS", "experiment": "Radiometric kinase activity assay", "assay_type": "biochemical", "settings": "5 μg/ml NR-818, 10 μM ATP", "protocol": "as §1"}, "MAPK2": {"biological_target": "T6, MAPK2 (Homo sapiens, UniProt P28482)", "T6 construct": "purchased Upstate Biotechnology", "T6 sequence (P28482 whole entry)": "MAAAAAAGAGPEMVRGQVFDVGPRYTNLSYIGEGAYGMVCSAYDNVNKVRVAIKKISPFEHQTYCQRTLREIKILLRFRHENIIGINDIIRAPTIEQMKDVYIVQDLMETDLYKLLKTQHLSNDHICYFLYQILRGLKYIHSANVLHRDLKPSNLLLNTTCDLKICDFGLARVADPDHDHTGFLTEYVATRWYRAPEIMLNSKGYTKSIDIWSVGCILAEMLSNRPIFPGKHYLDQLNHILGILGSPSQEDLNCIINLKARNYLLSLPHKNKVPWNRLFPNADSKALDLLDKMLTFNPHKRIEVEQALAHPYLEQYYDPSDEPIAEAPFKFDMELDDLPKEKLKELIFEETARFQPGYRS", "experiment": "Radiometric kinase activity assay", "assay_type": "biochemical", "settings": "5 μg/ml NR-818, 10 μM ATP", "protocol": "as §1"}, "PI 3-kinaseγ": {"biological_target": "T7, PI 3-kinaseγ (Homo sapiens, UniProt P48736)", "T7 construct": "purchased Upstate Biotechnology", "experiment": "Radiometric kinase activity assay", "assay_type": "biochemical", "settings": "5 μg/ml NR-818, 10 μM ATP", "protocol": "as §1"}, "JNK2α2": {"biological_target": "T8, JNK2α2 (Homo sapiens, UniProt P45984)", "T8 construct": "purchased Upstate Biotechnology", "T8 sequence (P45984 whole entry)": "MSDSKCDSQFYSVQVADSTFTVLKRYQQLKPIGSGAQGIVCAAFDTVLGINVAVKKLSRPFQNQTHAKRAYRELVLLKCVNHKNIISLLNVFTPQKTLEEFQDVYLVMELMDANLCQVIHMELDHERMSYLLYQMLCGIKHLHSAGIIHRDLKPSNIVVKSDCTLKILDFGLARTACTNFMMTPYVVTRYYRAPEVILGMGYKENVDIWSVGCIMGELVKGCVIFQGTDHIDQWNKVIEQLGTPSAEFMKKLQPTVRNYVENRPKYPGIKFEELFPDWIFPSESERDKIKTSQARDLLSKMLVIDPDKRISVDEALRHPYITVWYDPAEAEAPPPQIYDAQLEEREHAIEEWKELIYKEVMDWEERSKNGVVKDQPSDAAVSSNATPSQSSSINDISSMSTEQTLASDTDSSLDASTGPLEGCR", "experiment": "Radiometric kinase activity assay", "assay_type": "biochemical", "settings": "5 μg/ml NR-818, 10 μM ATP", "protocol": "as §1"}, "CDK3/cyclinE": {"biological_target": "T9, CDK3/cyclinE (Homo sapiens, UniProt Q00526)", "T9 construct": "purchased Upstate Biotechnology", "T9 sequence (Q00526 whole entry)": "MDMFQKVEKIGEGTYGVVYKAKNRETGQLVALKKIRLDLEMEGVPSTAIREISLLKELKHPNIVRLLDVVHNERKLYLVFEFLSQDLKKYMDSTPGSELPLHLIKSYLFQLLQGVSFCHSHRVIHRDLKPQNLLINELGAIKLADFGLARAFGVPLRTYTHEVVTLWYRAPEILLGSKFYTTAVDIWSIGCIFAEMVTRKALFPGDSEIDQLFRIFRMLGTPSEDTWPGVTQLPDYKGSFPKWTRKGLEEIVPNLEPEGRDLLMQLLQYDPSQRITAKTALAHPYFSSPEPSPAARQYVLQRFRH", "T9 sequence (P24864 whole entry partner)": "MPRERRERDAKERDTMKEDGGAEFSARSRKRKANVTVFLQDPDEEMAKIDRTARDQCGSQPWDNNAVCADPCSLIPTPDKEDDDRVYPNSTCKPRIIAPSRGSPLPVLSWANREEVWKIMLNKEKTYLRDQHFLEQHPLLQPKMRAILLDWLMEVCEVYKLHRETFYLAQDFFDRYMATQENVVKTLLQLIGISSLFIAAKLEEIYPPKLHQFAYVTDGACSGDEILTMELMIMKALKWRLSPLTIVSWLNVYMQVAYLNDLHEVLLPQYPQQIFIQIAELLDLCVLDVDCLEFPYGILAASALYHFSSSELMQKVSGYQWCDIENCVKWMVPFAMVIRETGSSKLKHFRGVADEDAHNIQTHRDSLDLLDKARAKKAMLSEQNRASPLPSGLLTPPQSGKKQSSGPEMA", "experiment": "Radiometric kinase activity assay", "assay_type": "biochemical", "settings": "5 μg/ml NR-818, 10 μM ATP", "protocol": "as §1"}, "CDK9/cyclinT1": {"biological_target": "T10, CDK9/cyclinT1 (Homo sapiens, UniProt P50750)", "T10 construct": "purchased Upstate Biotechnology", "experiment": "Radiometric kinase activity assay", "assay_type": "biochemical", "settings": "5 μg/ml NR-818, 10 μM ATP", "protocol": "as §1"}, "eEF-2K": {"biological_target": "T11, eEF-2K (Homo sapiens, UniProt O00418)", "T11 construct": "purchased Upstate Biotechnology", "experiment": "Radiometric kinase activity assay", "assay_type": "biochemical", "settings": "5 μg/ml NR-818, 10 μM ATP", "protocol": "as §1"}, "JNK1α1": {"biological_target": "T12, JNK1α1 (Homo sapiens, UniProt P45983)", "T12 construct": "purchased Upstate Biotechnology", "T12 sequence (P45983 1-384 isoform P45983-2)": "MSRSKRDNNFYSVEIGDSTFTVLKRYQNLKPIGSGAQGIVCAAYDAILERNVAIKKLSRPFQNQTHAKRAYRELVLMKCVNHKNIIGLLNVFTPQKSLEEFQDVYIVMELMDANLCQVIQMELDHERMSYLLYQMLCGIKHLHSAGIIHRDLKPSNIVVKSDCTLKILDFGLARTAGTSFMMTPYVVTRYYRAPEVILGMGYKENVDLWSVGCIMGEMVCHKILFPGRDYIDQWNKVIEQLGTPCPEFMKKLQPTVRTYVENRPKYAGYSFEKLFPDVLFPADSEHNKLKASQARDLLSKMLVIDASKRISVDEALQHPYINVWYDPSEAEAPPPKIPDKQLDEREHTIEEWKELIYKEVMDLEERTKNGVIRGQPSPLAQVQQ", "experiment": "Radiometric kinase activity assay", "assay_type": "biochemical", "settings": "5 μg/ml NR-818, 10 μM ATP", "protocol": "as §1"}, "PI 3-kinaseβ": {"biological_target": "T13, PI 3-kinaseβ (Homo sapiens, UniProt P42338)", "T13 construct": "purchased Upstate Biotechnology", "T13 sequence (P42338 whole entry)": "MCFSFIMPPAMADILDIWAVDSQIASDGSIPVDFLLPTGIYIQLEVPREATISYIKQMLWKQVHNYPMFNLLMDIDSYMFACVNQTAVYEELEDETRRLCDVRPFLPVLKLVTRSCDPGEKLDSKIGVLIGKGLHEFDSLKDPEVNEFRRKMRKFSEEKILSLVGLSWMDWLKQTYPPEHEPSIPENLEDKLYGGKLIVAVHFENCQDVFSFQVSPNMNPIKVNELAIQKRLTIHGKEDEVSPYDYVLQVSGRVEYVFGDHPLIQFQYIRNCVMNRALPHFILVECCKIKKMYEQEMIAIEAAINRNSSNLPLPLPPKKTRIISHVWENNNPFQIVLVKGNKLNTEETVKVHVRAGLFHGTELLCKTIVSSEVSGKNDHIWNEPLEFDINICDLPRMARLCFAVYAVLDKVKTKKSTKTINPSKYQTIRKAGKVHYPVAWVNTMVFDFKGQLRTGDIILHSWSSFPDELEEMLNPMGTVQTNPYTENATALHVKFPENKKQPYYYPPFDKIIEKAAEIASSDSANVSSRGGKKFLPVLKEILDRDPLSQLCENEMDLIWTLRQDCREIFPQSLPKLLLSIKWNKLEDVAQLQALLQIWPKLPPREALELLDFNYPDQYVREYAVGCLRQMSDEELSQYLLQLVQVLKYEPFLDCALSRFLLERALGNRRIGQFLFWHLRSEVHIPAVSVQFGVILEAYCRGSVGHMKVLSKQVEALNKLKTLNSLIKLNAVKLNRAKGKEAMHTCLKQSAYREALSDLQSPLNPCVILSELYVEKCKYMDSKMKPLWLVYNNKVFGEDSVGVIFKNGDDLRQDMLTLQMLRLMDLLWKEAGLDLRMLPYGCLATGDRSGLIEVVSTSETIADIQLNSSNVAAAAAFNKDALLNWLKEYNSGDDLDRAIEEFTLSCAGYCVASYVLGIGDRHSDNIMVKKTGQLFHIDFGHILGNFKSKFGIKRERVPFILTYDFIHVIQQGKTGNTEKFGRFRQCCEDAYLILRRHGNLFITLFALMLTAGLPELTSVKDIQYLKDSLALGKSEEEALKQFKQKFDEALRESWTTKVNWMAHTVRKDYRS", "T13 sequence (P27986 whole entry partner)": "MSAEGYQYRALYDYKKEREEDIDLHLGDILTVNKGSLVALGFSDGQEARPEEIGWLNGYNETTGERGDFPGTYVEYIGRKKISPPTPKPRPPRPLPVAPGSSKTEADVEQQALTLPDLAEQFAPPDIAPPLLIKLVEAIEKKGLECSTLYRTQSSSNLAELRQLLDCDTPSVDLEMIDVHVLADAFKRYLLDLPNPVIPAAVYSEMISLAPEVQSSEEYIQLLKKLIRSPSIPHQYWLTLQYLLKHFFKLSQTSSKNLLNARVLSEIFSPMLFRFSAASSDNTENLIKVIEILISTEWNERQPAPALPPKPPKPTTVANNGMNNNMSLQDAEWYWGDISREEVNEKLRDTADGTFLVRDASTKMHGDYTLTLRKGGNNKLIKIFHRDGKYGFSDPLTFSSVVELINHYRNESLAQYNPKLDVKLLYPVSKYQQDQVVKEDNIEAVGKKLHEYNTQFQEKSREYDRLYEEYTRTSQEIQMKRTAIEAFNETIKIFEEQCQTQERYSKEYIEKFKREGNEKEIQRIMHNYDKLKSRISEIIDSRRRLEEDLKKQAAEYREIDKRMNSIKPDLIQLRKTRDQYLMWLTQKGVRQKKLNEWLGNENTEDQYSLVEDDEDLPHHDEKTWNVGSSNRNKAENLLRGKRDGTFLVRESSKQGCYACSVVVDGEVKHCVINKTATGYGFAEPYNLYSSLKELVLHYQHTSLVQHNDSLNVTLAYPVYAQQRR", "experiment": "Radiometric kinase activity assay", "assay_type": "biochemical", "settings": "5 μg/ml NR-818, 10 μM ATP", "protocol": "as §1"}}, "data": [{"smiles": "Cc1nc(S)n(Nc2cccc3ccccc23)c1-c1ccccc1", "note": "[HER/NR818, 4-Methyl-1-(naphthalen-1-ylamino)-5-phenyl-1,3-dihydro-imidazole-2-thione]", "values": [{"measurement": "effect of daily medium replacement on protective properties", "setting": "motor neurons; medium replaced every day, FIG. 3", "value": "no effect on the protective properties"}, {"measurement": "basal survival of motor neurons", "setting": "motor neurons; monoculture, FIG. 1B", "value": "significant increase of the basal survival"}, {"measurement": "protective effect in combination with IL-2, IL-2-receptor blocking antibody or GM-CSF", "setting": "motor neurons; monoculture, survival on day 5, FIG. 4", "value": "not influenced by either of the added compounds"}, {"measurement": "optimal concentration for motor neuron survival", "setting": "motor neurons; monocultures, dose-response, treated from day 1, survival assessed on day 5, FIG. 2", "value": 1, "unit": "µg/mL"}, {"measurement": "Activity (% of control)", "setting": "GSK-3α", "value": "70 % of control"}, {"measurement": "Activity (% of control)", "setting": "GSK-3β", "value": "65 % of control"}, {"measurement": "PBMC cell count, NAIM combined with IL-2", "setting": "[1]; IL-2 10 U/ml plus NAIM (NR818 2.5 μg/ml), stimulated and non stimulated cells, versus IL-2 only", "value": "enhanced"}, {"measurement": "PBMC cell viability, NAIM as such", "setting": "[1]; NAIM alone, compared to control conditions", "value": "did not affect the cell viability"}, {"measurement": "Activity (% of control)", "setting": "CDK5/p25", "value": "98 % of control"}, {"measurement": "Activity (% of control)", "setting": "CDK1/cyclinB", "value": "88 % of control"}, {"measurement": "Activity (% of control)", "setting": "CDK7/cyclinH", "value": "100 % of control"}, {"measurement": "Activity (% of control)", "setting": "MAPK2", "value": "105 % of control"}, {"measurement": "Activity (% of control)", "setting": "PI 3-kinaseγ", "value": "96 % of control"}, {"measurement": "Activity (% of control)", "setting": "JNK2α2", "value": "100 % of control"}, {"measurement": "Activity (% of control)", "setting": "CDK3/cyclinE", "value": "103 % of control"}, {"measurement": "Activity (% of control)", "setting": "CDK9/cyclinT1", "value": "100 % of control"}, {"measurement": "Activity (% of control)", "setting": "eEF-2K", "value": "101 % of control"}, {"measurement": "Activity (% of control)", "setting": "JNK1α1", "value": "114 % of control"}, {"measurement": "Activity (% of control)", "setting": "PI 3-kinaseβ", "value": "81 % of control"}]}]}
